The values that follow come from patent US8053553B2, “Targeting host proteinases as a therapeutic strategy against viral and bacterial pathogens” (Socpra Sciences Sante Et Humaines, priority 2007, dated 2011).

Non-standard residues stand in square brackets, D forms with d. Residues, ends and D or L forms follow the SMILES beside them. No end group written: not given here. βAla = NCCC(=O)O

Data set [1] deals with PACE4. The data set can be described thus: Ki, μM | PACE4.
For data set [2], the target named is PC4. The data set can be described thus: Ki, μM | PC4.
Data set [3] deals with PC5/6. The data set can be described thus: Ki, μM | PC5/6.
Data set [4] deals with PC7. The data set can be described thus: Ki, μM | PC7.
The subject of data set [5] is B. anthracis Sterne spores. Set-up: species or system A/J mice. The following applies: mouse, in vivo.
For data set [6], the system named is Pseudomonas exotoxin A (PEx). The data set can be described thus: Lethal action of Pseudomonas exotoxin A in mice. It counts as in vivo, C57/BL6 mice. On the procedure: A similar set of experiments was carried out with an unrelated toxin, Pseudomonas exotoxin A. Consistent with the earlier data (Chiron, M. F., et al. 1997), Pseudomonas exotoxin A (PEx) was resistant to PC cleavage at pH 7.5 but following unfolding at pH 5.5 PEx (66 kDa) was readily processed by furin, PC4 and PC5/6 to produce the 28 kDa N-terminal fragment and the toxic 37 kDa Cterminal fragment (FIG. 3A). C57/BL6 mice (5 mice/group) received one intramuscular injection of PEx (500 ng/animal; 2xLD50; Fogle, M. R., et al. 2002) and one injection of the […] (SEQ ID NO:212) peptide (12.5 mg/kg i.p.) either 24 h prior to toxin injection or simultaneously with toxin. Another group of mice, after receiving one injection of the peptide 24 h prior to toxin injection, continued to receive daily injections of the peptide for the remainder of the experiment.
C57/BL6 mice (5 mice/group) received one intramuscular injection of PEx (500 ng/animal; 2xLD50; Fogle, M. R., et al. 2002). Mice received one injection of the […] (SEQ ID NO:212) peptide (12.5 mg/kg i.p.) either 24 h prior to toxin injection or simultaneously with toxin. Additional group of mice after receiving one injection of the peptide 24 h prior to toxin injection continued to receive daily injections of the peptide for the remainder of the experiment (FIG. 3B).

For data set [7], the system named is RAW 264.7 cells.

`C[C@H](NC(=O)[C@H](CCCNC(=N)N)NC(=O)[C@@H]1CCCN1C(=O)[C@@H](N)[C@@H](C)O)C(=O)N[C@@H](CCCNC(=N)N)C(=O)N[C@@H](CCCNC(=N)N)C(=O)N[C@@H](CCCNC(=N)N)C(=O)N[C@@H](CCCCN)C(=O)N[C@@H](CCCCN)C(=O)N[C@@H](CCCNC(=N)N)C(=O)N[C@H](C(N)=O)[C@@H](C)O` (H-TPRARRRKKRT-NH2) [listing 1 of 2 here]: the Ki in data set [1] came to 0.162 µM; in data set [2], 0.441 µM; in data set [3] it was 0.232 µM; in data set [4], 0.152 µM.
On to `C[C@H](NC(=O)[C@H](CCCNC(=N)N)NC(=O)[C@@H]1CCCN1C(=O)[C@@H](N)[C@@H](C)O)C(=O)N[C@@H](CCCNC(=N)N)C(=O)N[C@@H](CCCNC(=N)N)C(=O)N[C@@H](CCCNC(=N)N)C(=O)N[C@@H](CCCCN)C(=O)N[C@@H](CCCCN)C(=O)N[C@@H](CCCNC(=N)N)C(=O)N[C@H](C(N)=O)[C@@H](C)O` (H-TPRARRRKKRT-NH2) [listing 2 of 2 here], for which the “infected mice protected from disease” value in data set [5] came to 40%. Also, the survival in data set [6] (C57/BL6 mice, PEx 500 ng/animal (2xLD50), peptide 12.5 mg/kg i.p. 24 h prior to toxin then daily injections) was found to be 60%. Moreover, in data set [6] (peptide 12.5 mg/kg i.p. (FIG. 3)), the “protection of mice from the toxic effect of PEx” value was “protects mice from the toxic effect of Pseudomonas PEx”. In addition, the “protection from LF-induced cytotoxicity” value in data set [7] was “protected cells from LF-induced cytotoxicity”.
In the case of `O=C(O)c1cn(C2CC2)c2cc(N3CCNCC3)c(F)cc2c1=O` [Cipro, reference compound], in data set [5], the “infected mice protected from disease” value was 40% and the “protection of A/J mice from anthrax” value is on record as “protect A/J mice from anthrax”.
On to TPQRARRRKKRF, for which the inhibitory constant (Ki) was 0.602 µM in data set [1], 0.772 µM in data set [2], 0.806 µM in data set [3] and 1.13 µM in data set [4].
Take TPQRARRRKKRT: the Ki worked out at 0.515 µM in data set [2], 0.188 µM in data set [3] and 0.206 µM in data set [4].
As for TPQRARRRKKRW, the Ki in data set [1] is 0.192 µM; in data set [2] it was 0.952 µM; in data set [3], 0.433 µM; in data set [4] it was 0.172 µM.
For TPQRARRRKKRY, in that order: 1.02 µM, 0.624 µM, 0.649 µM and 1.22 µM.
Take TPRARRRKKRI: the Ki in data set [1] came to 0.026 µM; in data set [2] it was 0.562 µM; in data set [3], 0.492 µM; in data set [4], 0.135 µM.
Take “β-Ala-TPRARRRKKRT-amide ([βAla]TPRARRRKKRT-NH2; N-terminus assumed; SMILES C[C@H](NC(=O)[C@H](CCCNC(=N)N)NC(=O)[C@@H]1CCCN1C(=O)[C@@H](NC(=O)CCN)[C@@H](C)O)C(=O)N[C@@H](CCCNC(=N)N)C(=O)N[C@@H](CCCNC(=N)N)C(=O)N[C@@H](CCCNC(=N)N)C(=O)N[C@@H](CCCCN)C(=O)N[C@@H](CCCCN)C(=O)N[C@@H](CCCNC(=N)N)C(=O)N[C@H](C(N)=O)[C@@H](C)O)”: the “protection of A/J mice from anthrax” value in data set [5] is on record as “protect A/J mice from anthrax”.
